Bounds are passed on as bounds.

By IC50 is commonly meant the concentration needed to halve the response being measured. A lower IC50 goes with greater potency in that assay.

The test system of assay [1] is U937 (human leukemic monocyte lymphoma) cell line. The experiment in a line: Cell viability assay (CELL-TITER-GLO), U937. The class given is cell-based. To be noted: U-937, U937 cells, 48 hour treatment, 1 nM to 1 μM. As for the experimental part:
(§1) Cell viability assays were run using standard protocols known to those of skill in art. Cells were plated in 96 well plates at the density of 3,000-10,000 cells per well. Twenty four hours later, cells were treated with increasing concentration of test compounds (1 nM to 1 μM). After another 48 hour, cell survival was measured using CELL-TITER-GLO® reagent (Promega) following the protocol provided by the manufacture. The IC50 value was determined as the concentration of test compound that kills 50% of the cell population.
(§2) Cell viability data generated according to the protocol described herein was generated for representative compounds in the A2058 (human melanoma) and U937 (human leukemic monocyte lymphoma) cell lines. The compound of Example 16 (“Compound J”) was used as a reference compound.

The test system of assay [2] is A2058 (human melanoma) cell line. Briefly: Cell viability assay (CELL-TITER-GLO), A2058. The class given is cell-based. As to conditions: A2058 cells, 48 hour treatment, 1 nM to 1 μM. As for the experimental part: as §1, §2

As for `CC(C)[C@@H]1NC(=O)C(NC(=O)c2ccc(Br)cc2)Cc2ccc3c(c2)[C@]24C5=C(N=C1O5)c1ncc(o1)-c1c[nH]c5cccc(c15)-c1cccc2c1NC4O3` (some centres unmarked) [Example 55], the IC50 in assay [1] was determined as 0.406 µM; in assay [2] it was 0.613 µM.

For `CC(C)[C@@H]1NC(=O)C(NC(=O)/C=C/C(=O)O)Cc2ccc3c(c2)[C@]24C5=C(N=C1O5)c1ncc(o1)-c1c[nH]c5cccc(c15)-c1cccc2c1NC4O3` (some centres unmarked) [Example 56], the IC50 in assay [1] is 0.756 µM; in assay [2], more than 1 µM.

With `CO[C@@](C(=O)NC1Cc2ccc3c(c2)[C@]24C5=C(N=C(O5)[C@H](C(C)C)NC1=O)c1ncc(o1)-c1c[nH]c5cccc(c15)-c1cccc2c1NC4O3)(c1ccccc1)C(F)(F)F` (some centres unmarked) [Example 57], the IC50 turned out to be 0.618 µM in assay [1] and 0.58 µM in assay [2].

Regarding `CO[C@](C(=O)NC1Cc2ccc3c(c2)[C@]24C5=C(N=C(O5)[C@H](C(C)C)NC1=O)c1ncc(o1)-c1c[nH]c5cccc(c15)-c1cccc2c1NC4O3)(c1ccccc1)C(F)(F)F` (some centres unmarked) [Example 58], the IC50 in assay [1] is 0.821 µM; in assay [2], more than 1 µM.

Take `COc1cc(C(=O)NC2Cc3ccc4c(c3)C35C6=C(N=C(O6)[C@H](C(C)C)NC2=O)c2ncc(o2)-c2c[nH]c6cccc(c26)-c2cccc3c2N[C@H]5O4)cc(OC)c1OC` (some centres unmarked) [Example 59]: the IC50 is 0.619 µM in assay [1] and 0.798 µM in assay [2].

Take `CC(C)[C@@H]1NC(=O)C(NC(=O)C(C)(C)C)Cc2ccc3c(c2)[C@]24C5=C(N=C1O5)c1ncc(o1)-c1c[nH]c5cccc(c15)-c1cccc2c1NC4O3` (some centres unmarked) [Example 60]: the IC50 was 0.255 µM in assay [1] and 0.538 µM in assay [2].

With `CCCC(C)C(=O)NC1Cc2ccc3c(c2)[C@]24C5=C(N=C(O5)[C@H](C(C)C)NC1=O)c1ncc(o1)-c1c[nH]c5cccc(c15)-c1cccc2c1NC4O3` (some centres unmarked) [Example 61], the IC50 came to 0.55 µM in assay [1] and 0.636 µM in assay [2].

Regarding `CCC(CC)C(=O)NC1Cc2ccc3c(c2)[C@]24C5=C(N=C(O5)[C@H](C(C)C)NC1=O)c1ncc(o1)-c1c[nH]c5cccc(c15)-c1cccc2c1NC4O3` (some centres unmarked) [Example 62], the IC50 in assay [1] was 0.247 µM; in assay [2], 0.556 µM.

On to `CC(C)[C@@H]1NC(=O)C(NC(=O)c2cccs2)Cc2ccc3c(c2)[C@]24C5=C(N=C1O5)c1ncc(o1)-c1c[nH]c5cccc(c15)-c1cccc2c1NC4O3` (some centres unmarked) [Example 63], for which the IC50 was 0.206 µM in assay [1] and 0.488 µM in assay [2].

`CC(C)[C@@H]1NC(=O)C(NC(=O)Cc2cccs2)Cc2ccc3c(c2)[C@]24C5=C(N=C1O5)c1ncc(o1)-c1c[nH]c5cccc(c15)-c1cccc2c1NC4O3` (some centres unmarked) [Example 64]: the IC50 in assay [1] and in assay [2] was more than 1 µM in each case.

On to `CC(C)[C@@H]1NC(=O)C(NC=O)Cc2ccc3c(c2)C24C5=C(N=C1O5)c1ncc(o1)-c1c[nH]c5cccc(c15)-c1cccc2c1N[C@H]4O3` (some centres unmarked) [Example 66], for which the IC50 in assay [1] came to 0.499 µM; in assay [2] it was 0.766 µM.

For the compound `CC(C)=CCC/C(C)=C/CNC1Cc2ccc3c(c2)C24C5=C(N=C(O5)[C@H](C(C)C)NC1=O)c1ncc(o1)-c1c[nH]c5cccc(c15)-c1cccc2c1N[C@H]4O3` (some centres unmarked) [Example 67], the IC50 in assay [1] and in assay [2] was more than 1 µM in each case.

With `CC(C)OC(=O)NC1Cc2ccc3c(c2)C24C5=C(N=C(O5)[C@H](C(C)C)NC1=O)c1ncc(o1)-c1c[nH]c5cccc(c15)-c1cccc2c1N[C@H]4O3` (some centres unmarked) [Example 68], the figures for the IC50 in assay [1] and in assay [2] were 0.214 µM and 0.451 µM, respectively.

Regarding `CC(C)COC(=O)NC1Cc2ccc3c(c2)[C@]24C5=C(N=C(O5)[C@H](C(C)C)NC1=O)c1ncc(o1)-c1c[nH]c5cccc(c15)-c1cccc2c1NC4O3` (some centres unmarked) [Example 69], the IC50 in assay [1] came out at 0.272 µM; in assay [2], 0.541 µM.

For the compound `C#CCOC(=O)NC1Cc2ccc3c(c2)[C@]24C5=C(N=C(O5)[C@H](C(C)C)NC1=O)c1ncc(o1)-c1c[nH]c5cccc(c15)-c1cccc2c1NC4O3` (some centres unmarked) [Example 70], the IC50 in assay [1] amounted to 0.434 µM; in assay [2], 0.692 µM.

Regarding `C=CCOC(=O)NC1Cc2ccc3c(c2)[C@]24C5=C(N=C(O5)[C@H](C(C)C)NC1=O)c1ncc(o1)-c1c[nH]c5cccc(c15)-c1cccc2c1NC4O3` (some centres unmarked) [Example 71], the IC50 in assay [1] was 0.185 µM; in assay [2], 0.451 µM.

Regarding `CCCSC(=O)NC1Cc2ccc3c(c2)[C@]24C5=C(N=C(O5)[C@H](C(C)C)NC1=O)c1ncc(o1)-c1c[nH]c5cccc(c15)-c1cccc2c1NC4O3` (some centres unmarked) [Example 72], the IC50 in assay [1] was determined as 0.543 µM; in assay [2] it was 0.6 µM.

As for `CC(C)[C@@H]1NC(=O)C(NS(C)(=O)=O)Cc2ccc3c(c2)C24C5=C(N=C1O5)c1ncc(o1)-c1c[nH]c5cccc(c15)-c1cccc2c1N[C@H]4O3` (some centres unmarked) [Example 73], the IC50 was determined as 0.067 µM in assay [1] and 0.14 µM in assay [2].

As for `CC(C)[C@@H]1NC(=O)C(NS(=O)(=O)c2ccccc2)Cc2ccc3c(c2)[C@]24C5=C(N=C1O5)c1ncc(o1)-c1c[nH]c5cccc(c15)-c1cccc2c1NC4O3` (some centres unmarked) [Example 74], the IC50 in assay [1] was more than 1 µM; in assay [2], 0.429 µM.

On to `CC(C)[C@@H]1NC(=O)C(NS(=O)(=O)c2cccs2)Cc2ccc3c(c2)[C@]24C5=C(N=C1O5)c1ncc(o1)-c1c[nH]c5cccc(c15)-c1cccc2c1NC4O3` (some centres unmarked) [Example 75], for which the IC50 in assay [1] and in assay [2] was more than 1 µM each time.

With `COC(=O)c1nc2oc1-c1c[nH]c3cccc(c13)-c1cccc3c1N[C@H]1Oc4ccc5cc4C31c1oc(nc1-2)[C@H](C(C)C)NC(=O)C(NC(=O)[C@@H](O)C(C)C)C5` (some centres unmarked) [Example 76], the IC50 was determined as 0.018 µM in assay [1] and 0.013 µM in assay [2].

Consider `CC(C)[C@H](O)C(=O)NC1Cc2ccc3c(c2)C24C5=C(N=C(O5)[C@H](C(C)C)NC1=O)c1ncc(o1)-c1c[nH]c5c(O)ccc(c15)-c1cccc2c1N[C@H]4O3` (some centres unmarked) [Example 77], for which the IC50 in assay [1] was found to be 0.052 µM; in assay [2], 0.07 µM.

Consider `COc1ccc2c3c(c[nH]c13)-c1cnc(o1)-c1nc3oc1C14c5cc(ccc5O[C@@H]1Nc1c-2cccc14)CC(NC(=O)[C@@H](O)C(C)C)C(=O)N[C@H]3C(C)C` (some centres unmarked) [Example 78], for which the IC50 came out at 0.051 µM in assay [1] and 0.042 µM in assay [2].

Regarding `COc1ccc2c3c(cn(C)c13)-c1cnc(o1)-c1nc3oc1C14c5cc(ccc5O[C@@H]1Nc1c-2cccc14)CC(NC(=O)[C@@H](O)C(C)C)C(=O)N[C@H]3C(C)C` (some centres unmarked) [Example 79], the IC50 in assay [1] came out at 0.027 µM; in assay [2], 0.022 µM.

For `CCC(O)(CC)C(=O)N[C@H]1Cc2ccc3c(c2)C24C5=C(N=C(O5)[C@H](C(C)C)NC1=O)c1ncc(o1)-c1c[nH]c5c(O)ccc(c15)-c1cccc2c1N[C@H]4O3` (some centres unmarked) [Example 80], the IC50 is 0.182 µM in assay [1] and 0.183 µM in assay [2].

On to `CCC(O)(CC)C(=O)N[C@H]1Cc2ccc3c(c2)C24C5=C(N=C(O5)[C@H](C(C)C)NC1=O)c1ncc(o1)-c1c[nH]c5c(OC)ccc(c15)-c1cccc2c1N[C@H]4O3` (some centres unmarked) [Example 81], for which the IC50 in assay [1] is 0.054 µM; in assay [2], 0.123 µM.

In the case of `CCC(O)(CC)C(=O)N[C@H]1Cc2ccc3c(c2)C24C5=C(N=C(O5)[C@H](C(C)C)NC1=O)c1ncc(o1)-c1cn(C)c5c(OC)ccc(c15)-c1cccc2c1N[C@H]4O3` (some centres unmarked) [Example 82], the IC50 in assay [1] was found to be 0.021 µM; in assay [2], 0.029 µM.

With `CC(C)[C@H](O)C(=O)N[C@H]1Cc2ccc3c(c2)C24C5=C(N=C(O5)[C@H](C(C)C)NC1=O)c1nc(Cl)c(o1)-c1c(Cl)[nH]c5cccc(c15)-c1cc(Cl)cc2c1N[C@H]4O3` (some centres unmarked) [Example 83], the figures for the IC50 in assay [1] and in assay [2] were 0.693 µM and 0.63 µM, respectively.

For the origin of these results see patent US8476256B2, “Diazonamide analogs” (Joyant Pharmaceuticals, Inc., priority 2008, dated 2013).
